Measured values taken from paper PMC3209708 (Journal of medicinal chemistry, 2011).
Read-outs that look alike come from different tables or passages of the source.

What was measured:
[1] = target: T1, hPCFT (Homo sapiens, UniProt Q96NT5); assay: hPCFT transport assays with [3H]MTX in R2/hPCFT4 cells; assay type: cell-based; settings: 10 µM competitor, 0.5 µM [3H]MTX, pH 5.5 to pH 7.2, R2/hPCFT4 cells
T1 sequence (Q96NT5 1-459): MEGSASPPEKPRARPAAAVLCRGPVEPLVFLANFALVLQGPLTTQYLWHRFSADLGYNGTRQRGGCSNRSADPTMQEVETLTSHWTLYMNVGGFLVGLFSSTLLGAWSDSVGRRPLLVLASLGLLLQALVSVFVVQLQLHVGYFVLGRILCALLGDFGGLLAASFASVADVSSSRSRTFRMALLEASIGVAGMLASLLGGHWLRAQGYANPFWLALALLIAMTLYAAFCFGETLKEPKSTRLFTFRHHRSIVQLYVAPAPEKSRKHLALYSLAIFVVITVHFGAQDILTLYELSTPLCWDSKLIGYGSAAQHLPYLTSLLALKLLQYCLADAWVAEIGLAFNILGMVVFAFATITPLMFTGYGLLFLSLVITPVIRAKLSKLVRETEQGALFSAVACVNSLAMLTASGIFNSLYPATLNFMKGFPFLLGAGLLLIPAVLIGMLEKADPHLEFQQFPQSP

[2] = test system: R2/hPCFT4 cells; assay: Nucleoside/AICA protection from growth inhibition; assay type: cell-based, Chinese hamster; settings: adenosine 60 µM, thymidine 10 µM, AICA 320 µM
[3] = target: T1, hPCFT; assay: Electrophysiology, Xenopus oocytes injected with hPCFT cRNA; assay type: cell-based; settings: 5 µM, pH 5.5, clamped at -90 mV
[4] = test system: subcutaneous human IGROV1 ovarian tumors; assay: In vivo efficacy trial, IGROV1 xenografts; design: species or system female ICR SCID mice
[5] = target: T1, hPCFT; settings: Lineweaver-Burke plots, ref 14 (Wang et al.), cited from earlier work
[6] = target: FRα (Homo sapiens, UniProt P15328); settings: RT16 cells, 50 nM [3H]folic acid, folic acid = 1
Sequence of FRα (P15328 25-257): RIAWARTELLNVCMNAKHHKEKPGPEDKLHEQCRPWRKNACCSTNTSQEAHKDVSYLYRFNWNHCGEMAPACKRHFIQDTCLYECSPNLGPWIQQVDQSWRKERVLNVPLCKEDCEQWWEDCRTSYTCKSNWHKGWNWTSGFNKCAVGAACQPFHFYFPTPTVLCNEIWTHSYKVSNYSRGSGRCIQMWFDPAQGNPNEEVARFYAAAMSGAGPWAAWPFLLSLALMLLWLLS

[7] = target: FRβ (Homo sapiens, UniProt P14207); settings: D4 cells, 50 nM [3H]folic acid, folic acid = 1
Sequence of FRβ (P14207 17-255): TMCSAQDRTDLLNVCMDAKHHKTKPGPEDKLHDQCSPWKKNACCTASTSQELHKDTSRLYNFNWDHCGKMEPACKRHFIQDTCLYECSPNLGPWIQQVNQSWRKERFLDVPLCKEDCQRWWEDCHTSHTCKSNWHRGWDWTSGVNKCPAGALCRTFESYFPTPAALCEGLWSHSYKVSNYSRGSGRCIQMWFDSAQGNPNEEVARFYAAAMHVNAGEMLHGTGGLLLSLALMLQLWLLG

[8] = test system: PC43-10 cells (hRFC); settings: read-out: IC50 PC43-10; cited from earlier work

Nc1nc2[nH]cc(CCc3ccc(C(=O)N[C@@H](CCC(=O)O)C(=O)O)cc3)c2c(=O)[nH]1 [PMX, N-{4-[2-(2-amino-3,4-dihydro-4-oxo-7H-pyrrolo[2,3-d]pyrimidin-5-yl)ethyl]benzoyl}-L-glutamic acid]
inhibition of hPCFT-mediated [3H]MTX transport [1]: potent and essentially equivalent inhibitors
protection from growth inhibition by nucleosides/AICA [2]: completely reversed by adenosine combined with thymidine

Nc1nc(N)c2nc(CNc3ccc(C(=O)N[C@@H](CCCNC(=O)c4ccccc4C(=O)O)C(=O)O)cc3)cnc2n1 [Compound 9, N^α-(4-amino-4-deoxypteroyl)-N^δ-hemiphthaloyl-L-ornithine]
inhibition of hPCFT-mediated [3H]MTX transport [1]: did not inhibit

Nc1nc2c(c(=O)[nH]1)C[C@@H](CCc1ccc(C(=O)N[C@@H](CCC(=O)O)C(=O)O)cc1)CN2 [LMTX, 5,10-dideaza-5,6,7,8-tetrahydrofolate]
protection from growth inhibition by nucleosides/AICA [2]: abolished by either adenosine or AICA alone

Nc1nc2[nH]c(CCCc3ccc(C(=O)N[C@@H](CCC(=O)O)C(=O)O)s3)cc2c(=O)[nH]1 [Compound 3, N-({5-[(2-amino-4-oxo-4,7-dihydro-3H-pyrrolo[2,3-d]pyrimidin-6-yl)propyl]thiophen-2-yl}carbonyl)-L-glutamic acid]
substrate-induced current [3]: induced currents
inhibition of hPCFT-mediated [3H]MTX transport [1]: potent and essentially equivalent inhibitors
protection from growth inhibition by nucleosides/AICA [2]: abolished by either adenosine or AICA alone
full recovery of body weight, time post last treatment ([4]; 25 mg/kg/inj, folate-deficient diet): 8 days
full recovery of body weight, time post last treatment ([4]; 40 mg/kg/inj, folate-deficient diet): 10 days
host recovery time ([4]; folate-deficient diet): ≤ 10 days
reversible body weight loss ([4]; standard folate replete diet): 2.7–5%

CN(Cc1cnc2nc(N)nc(N)c2n1)c1ccc(C(=O)N[C@@H](CCC(=O)O)C(=O)O)cc1 [MTX, methotrexate]
Kt ([5]; pH 5.5): 0.28 ± 0.02 µM
Vmax ([5]; pH 5.5): 31.23 ± 4.31 pmol/mg/min
Kt ([5]; pH 6.8): 4.52 ± 0.19 µM
Vmax ([5]; pH 6.8): 13.72 ± 2.26 pmol/mg/min

Nc1nc2[nH]c(CCc3ccc(C(=O)N[C@@H](CCC(=O)O)C(=O)O)s3)cc2c(=O)[nH]1 [Compound 2, N-({5-[(2-amino-4-oxo-4,7-dihydro-3H-pyrrolo[2,3-d]pyrimidin-6-yl)ethyl]thiophen-2-yl}carbonyl)-L-glutamic acid]
relative binding affinity for FRα [6]: undetectable
relative binding affinity for FRβ [7]: undetectable

Nc1nc2[nH]c(CCCCc3ccc(C(=O)N[C@@H](CCC(=O)O)C(=O)O)s3)cc2c(=O)[nH]1 [Compound 4]
gross log kill ([4]; 112.5 mg/kg/injection iv Q4dx5, folate-deficient diet): 1.2
IC50 [8]: > 1 µM
